# Measurements taken from patent US20100286131A1, “VIRAL POLYMERASE INHIBITORS” (BOEHRINGER INGELHEIM INTERNATIONAL GMBH, priority 2007, published 2010).
# Test system: cells expressing a stable subgenomic HCV replicon
# Test: Cell-based luciferase reporter HCV RNA replication assay
# Conditions: Hepatitis C virus, inhibition of HCV RNA replication, assay of WO 2005/028501
# Description: Cell-Based Luciferase Reporter HCV RNA Replication Assay
# Compounds of the invention are tested for activity as inhibitors of hepatitis C virus RNA replication in cells expressing a stable subgenomic HCV replicon, using the assay described in WO 2005/028501, herein incorporated by reference. Table 4 lists representative compounds of the invention with their EC50 values and a comparative non-fluorinated analog wherein the presence of the fluorine atom provided an unexpected improvement in cell-based potency.
row,Compound,EC50 [nM]
1,Cc1ccc(OCc2cnc(Oc3ccc(N(C(=O)[C@H]4CC[C@H](C)CC4)C(C)C)c(C(=O)O)c3)c(C(F)(F)F)c2)c(C)n1,86.5
2,CC(C)N(c1ccc(Cc2ccc(Cn3cccc4ccnc3-4)cc2C(F)(F)F)cc1C(=O)O)C(=O)[C@H]1CC[C@H](C)CC1,208
3,CC(C)N(c1ccc(Oc2ncc(Cn3cnnc3)cc2C(F)(F)F)cc1C(=O)O)C(=O)[C@H]1CC[C@H](C)CC1,160
4,CC(C)N(c1ccc(Oc2ncc(CN3CCC(F)(F)C3)cc2C(F)(F)F)cc1C(=O)O)C(=O)[C@H]1CC[C@H](C)CC1,89
5,CC(C)N(c1ccc(Oc2ccc(Cn3ccc4cccnc43)cc2C(F)(F)F)cc1C(=O)O)C(=O)[C@H]1CC[C@H](C)CC1,265
6,CC(C)N(c1cc(F)c(Oc2ncc(Cn3cnnc3)cc2C(F)(F)F)cc1C(=O)O)C(=O)[C@H]1CC[C@H](C)CC1 [Compound 1042],47
7,Cc1ccc(OCc2cnc(Oc3cc(C(=O)O)c(N(C(=O)[C@H]4CC[C@H](C)CC4)C(C)C)cc3F)c(C(F)(F)F)c2)c(C)n1 [Compound 1058],39.5
8,CC(C)N(c1cc(F)c(Oc2ncc(CN3CCC(F)(F)C3)cc2C(F)(F)F)cc1C(=O)O)C(=O)[C@H]1CC[C@H](C)CC1 [Compound 1101],41.5
9,CC(C)N(c1cc(F)c(Oc2ccc(Cn3cccc4ccnc3-4)cc2C(F)(F)F)cc1C(=O)O)C(=O)[C@H]1CC[C@H](C)CC1 [Compound 3016],72.5
10,CC(C)N(c1cc(F)c(Oc2ccc(Cn3ccc4cccnc43)cc2C(F)(F)F)cc1C(=O)O)C(=O)[C@H]1CC[C@H](C)CC1 [Compound 3033],145

# Test system: not listed separately
# Test: In vitro metabolism in male human liver microsomes (HLM)
# Assay type: in vitro ADME
# Conditions: 1 mg microsomal protein, 2.5 mM NADPH, 2 μM compound, pH 7.4, 37° C.
# Description: Male human liver microsomes are purchased from Gentest. The pool consisted of microsomes from several donors. The in vitro metabolism in liver microsomes is carried out in a reaction media containing 1 mg of microsomal protein, 2.5 mM NADPH and 2 μM compound in a total volume of 1 ml of 0.066 M Tris buffer, pH 7.4 for 20 minutes at 37° C. Reactions are initiated by the addition of NADPH and terminated at the appropriate times by quenching with an equal volume of a 1:1 mixture of acetonitrile:methanol.
row,Compound,HLM [min]
1,CC(C)N(c1ccc(Oc2ncccc2C(F)(F)F)cc1C(=O)O)C(=O)[C@H]1CC[C@H](C)CC1,69
2,Cc1nc(Cc2ccc(Oc3ccc(N(C(=O)[C@H]4CC[C@H](C)CC4)C(C)C)c(C(=O)O)c3)c(C(F)(F)F)c2)cs1,29
3,CC(C)N(c1cc(F)c(Oc2ncccc2C(F)(F)F)cc1C(=O)O)C(=O)[C@H]1CC[C@H](C)CC1 [Compound 1011],136
4,Cc1nc(Cc2cnc(Oc3cc(C(=O)O)c(N(C(=O)[C@H]4CC[C@H](C)CC4)C(C)C)cc3F)c(C(F)(F)F)c2)cs1 [Compound 1072],129
